In PMC4417528, “Loureirin B, an essential component of Sanguis Draxonis, inhibits Kv1.3 channel and suppresses cytokine release from Jurkat T cells” (Cell & Bioscience, 2014):

Legend:
Assay type in all cases: cell-based
mKv1.3-H404T = biological target: T1, mKv1.3-H404T (Mus musculus, UniProt P16390, H404T); test: whole-cell patch clamp, HEK293T cells, steady-state current at +[…] mV
T1 construct: gene Kcna3; mKv1.3 mutant expressed in HEK293T cells

mKv1.3 = biological target: T2, mKv1.3 (Mus musculus, UniProt P16390); test: as above
T2 construct: gene Kcna3; wild-type mKv1.3 expressed in HEK293T cells
T2 sequence (P16390 whole entry): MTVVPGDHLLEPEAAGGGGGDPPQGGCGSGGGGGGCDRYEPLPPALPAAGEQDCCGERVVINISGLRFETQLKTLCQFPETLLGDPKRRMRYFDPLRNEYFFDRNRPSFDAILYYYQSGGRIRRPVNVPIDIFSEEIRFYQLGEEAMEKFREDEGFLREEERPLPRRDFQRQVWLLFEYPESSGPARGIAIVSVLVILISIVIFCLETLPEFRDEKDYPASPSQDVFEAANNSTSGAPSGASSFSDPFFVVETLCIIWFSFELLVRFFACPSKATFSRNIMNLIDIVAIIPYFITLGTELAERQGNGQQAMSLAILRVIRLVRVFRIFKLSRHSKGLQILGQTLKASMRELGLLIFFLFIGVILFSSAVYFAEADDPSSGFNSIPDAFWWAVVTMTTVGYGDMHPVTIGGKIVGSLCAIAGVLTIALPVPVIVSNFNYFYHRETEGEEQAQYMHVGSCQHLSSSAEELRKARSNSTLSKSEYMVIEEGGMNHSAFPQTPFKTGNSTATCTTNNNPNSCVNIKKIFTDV

mKv1.3-A418C = biological target: T3, mKv1.3-A418C (Mus musculus, UniProt P16390, A418C); test: as above
T3 construct: gene Kcna3; mKv1.3 mutant expressed in HEK293T cells
T3 sequence (P16390 whole entry A418C): as the sequence (P16390 whole entry) above, with A418C counted along it

Kv1.3 = biological target: T4, Kv1.3 (Homo sapiens, UniProt P22001); test: whole-cell patch clamp, Jurkat T cells
T4 construct: gene KCNA3; endogenous Kv1.3 in Jurkat T cells
T4 sequence (P22001 whole entry): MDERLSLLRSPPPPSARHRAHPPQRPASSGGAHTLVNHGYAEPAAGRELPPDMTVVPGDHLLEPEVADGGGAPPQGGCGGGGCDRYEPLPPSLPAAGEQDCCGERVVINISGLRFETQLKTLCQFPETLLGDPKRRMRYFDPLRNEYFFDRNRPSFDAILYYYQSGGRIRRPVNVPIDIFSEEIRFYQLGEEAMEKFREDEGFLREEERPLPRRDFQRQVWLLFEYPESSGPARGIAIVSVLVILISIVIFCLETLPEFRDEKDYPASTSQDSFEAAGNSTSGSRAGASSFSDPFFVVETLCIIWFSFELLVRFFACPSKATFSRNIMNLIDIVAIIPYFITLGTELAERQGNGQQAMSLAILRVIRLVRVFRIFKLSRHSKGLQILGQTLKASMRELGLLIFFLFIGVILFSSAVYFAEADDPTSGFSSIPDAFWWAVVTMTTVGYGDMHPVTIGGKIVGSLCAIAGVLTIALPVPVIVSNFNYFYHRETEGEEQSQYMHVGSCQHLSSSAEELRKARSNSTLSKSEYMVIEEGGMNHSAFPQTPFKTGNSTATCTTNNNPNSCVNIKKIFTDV

T1 sequence (P16390 whole entry H404T): as the sequence (P16390 whole entry) above, with H404T counted along it

IC50 (mKv1.3-H404T): 116 ± 19.8 µM
IC50 (mKv1.3): 7.2 ± 0.6 µM
IC50 (mKv1.3-A418C): 29.1 ± 7.1 µM
IC50 (Kv1.3): 19.9 ± 1.8 µM
SMILES: COc1cc(OC)c(CCC(=O)c2ccc(O)cc2)c(OC)c1 [LrB, loureirin B]
